Here are results for one compound from patent US12054509B2, “Antimicrobial compounds, compositions, and uses thereof” (Lakewood Amedex, Inc., priority 2017, dated 2024).

Assay [1] concerns Helicobacter pylori SS1 (CagA+, VacA+). Briefly: Helicobacter pylori SS1 infection in C57BL6 mice, bacterial stomach titers. It is filed as in vivo. The text has this:
The mouse strain used in this study is C57BL6 ranging from 5-6 weeks in age and 18-22 grams in weight. Mice are housed five to a cage with free access to food and water in accordance with NIB guidelines.
A bacterial strain of Helicobacter pylori SS1 (CagA+, VacA+) is adapted for the mouse model from a human clinical isolate and validated in this infection model.
At 6 days prior to infection, a frozen stock is streaked onto one to two Columbia 5% sheep blood agar plates, and the plates are microaerophilically incubated for 72 hours at 37° C. After 72 hours, the plate growth is subcultured onto five Columbia 5% sheep blood agar plates and is incubated as before. After another 72 hours of incubation, the plates are removed, and the plate growth is suspended in sterile 0.9% saline to an OD of 1.5-2.0 at 530 nm. This OD is approximately equal to 1.0e+09 CFU/mL, which is used to orally infect the mice on all 3 infection days. To infect mice, the mice are orally dosed 0.25 mL of the 1.0e+09 CFU/mL via a 20-22 G gavage needle. Mice need to be fasted only before the first infection.
At 1 week post-infection, mice are treated with Nu-8. Multiple dose antibiotic therapies are administered orally at 0.2 mL/dose. Antibiotics are administered 2 times per day and continued for 7 days. The control group is administered the vehicle alone.
Food is removed from cages 18 hours prior to euthanizing animals and each cage is clearly labeled that the animals are being experimentally fasted. Mice are euthanized (CO2 & cervical dislocation). […] The excised stomach is placed into a sterile petri dish and the luminal contents are rinsed away with sterile 1×PBS. Each rinsed stomach is placed into a 14-mL Falcon tube containing 2 mL of 1×PBS and stored on ice. Each stomach is homogenized, 10-fold serial diluted in 1×PBS, spot plated onto Columbia agar with 3.5% laked horse blood±the DENT selective antibiotic supplement, and microaerophilically incubated for 5 days at 37° C. Then, colonies are counted.
Nu-8 is administered at various doses (mg/kg), orally, twice-a-day for 7 days. The formulations, concentration and dose volumes for treatment is established prior to dosing. The positive control group consists of a triple therapy regimen (omeprazole, amoxicillin, and clarithromycin). Negative control used dosing solution without drugs.

Assay [2] has as its system methicillin susceptible S. aureus (ATCC 29213). Briefly: Bacterial cytological profiling at pH 4, 5.5, 7 (Example 8), S. aureus. Format: cell-based. As to conditions: for cell permeability / cell viability: pH 4. As to the method:
This bacterial cytological profiling (BCP) investigation uses methods and materials described previously by Nonejuie, P., Burkart, M., Poglianoa, K., Pogiano, J. (2013). Bacterial cytological profiling rapidly identifies the cellular pathways targeted by antibacterial molecules. Proc. Natl. Acad. Sci. U.S.A. 110(40):16169-16174. doi: 10.1073/pnas.1311066110.
For viable cell counts, cells are grown to OD600≈0.4 and diluted 1:1 into buffered or unbuffered media containing various compound concentrations. Samples are then collected and serially diluted (1:10) on a 96 well plate. Five microliters from each well are spotted on LB plates, incubated at 30° C., and viable cells are counted the next day.
Samples are collected at 10, 30, 120, and 240 min of exposure for viable cell count and imaging. For imaging, E. coli and S. aureus 200 μL of treated cells per time point are stained with 0.8 μg/mL FM4-64, 1.5 μg/mL DAPI, and 0.4 μM SYTOXGreen (Molecular Probes/Invitrogen). P. aeruginosa samples are stained 0.4 μM SYTOX Green, 28 μg/mL DAN, and 1 μg/mL FM 4-64. Cells are transferred to an agarose pad (20% LB, 1% agarose) for imaging.
For Nu-3 and Nu-8 stocks (at pH 4, 5.5 and 7), stock concentration is 500 mg/mL. For pH 4, the stocks are prepared by dissolving Nu-3 in 25 mM citrate buffer and Nu-8 in 350 mM citric acid. For pH 5.5, the stocks are prepared by dissolving Nu-3 in 25 mM citric-phosphate and Nu-8 in 25 mM critic. For pH 7, the stocks are prepared by dissolving Nu-3 and Nu-8 in 25 mM Sorensen phosphate buffer. 2×LB (lysogeny broth) solutions are prepared with 50 mM citrate buffer for pH 4, 50 mM citrate-phosphate buffer for pH 5.5, and 50 mM Sorensen phosphate buffer for pH 7.

Assay [3] deals with E. coli ATCC 25922 or P. aeruginosa K2732. Kind of assay: Bacterial cytological profiling (Example 6), cell viability, strain not stated. As to conditions: within minutes, from initial 10^9 CFU/mL. Format: cell-based. As for the experimental part:
This bacterial cytological profiling (BCP) study uses methods and materials described previously by Nonejuie, P., Burkart, M., Poglianoa, K., Pogiano, J. (2013). Bacterial cytological profiling rapidly identifies the cellular pathways targeted by antibacterial molecules. Proc. Natl. Acad. Sci. U.S.A. 110(40):16169-16174. doi: 10.1073/pnas.1311066110.
Wild type strains of E. coli ATCC 25922 or P. aeruginosa K2732 are grown in rich media (unbuffered 2× Lysogeny broth [LB]) at 30 C to an OD600˜0.4. These cultures are then split and each sample treated with the appropriate concentration of Nu-8 in unbuffered or buffered LB (final mixture OD600˜0.1). Cells exposed without Nu-8 are buffered to pH 4 with phosphoric acid.
The BCP is performed in LB media buffered to pH 4. The minimum inhibitory concentration (MIC) is measured for Nu-3, Nu-4, Nu-5, and Nu-8 against each bacterial strain. As one of ordinary skill in the art understands, minimum inhibitory concentrations are the lowest concentration of an antimicrobial that will inhibit the visible growth of a microorganism after overnight incubation. […] Cellular viability is assayed at three time points (5 minutes and 4 and 24 h following the onset of treatment).

Where only a bound is given, the exact number is not on record here.

With `CCCCOP(=O)(O)OC[C@H]1O[C@@H](n2ccc(N)nc2=O)C[C@@H]1OP(=O)(O)OCCCC` [Nu-8, sodium ((2R,3S,5R)-5-(4-amino-2-oxopyrimidin-1(2H)-yl)-3-((butoxyoxidophosphor-yl)oxy)tetrahydrofuran-2-yl)methyl butyl phosphate], the “mean bacterial stomach titer” value in assay [1] (0.2 mg (1 mg/mL, 0.2 mL) PO bid 7 days, +7 Days) came to 5.62 log10 CFU; in assay [1] (0.2 mg (1 mg/mL, 0.2 mL) PO bid 7 days, +14 Days), 6.2 log10 CFU; in assay [1] (1.0 mg (5 mg/mL, 0.2 mL) PO bid 7 days, +7 Days), 5.21 log10 CFU; in assay [1] (1.0 mg (5 mg/mL, 0.2 mL) PO bid 7 days, +14 Days), 5.67 log10 CFU; in assay [1] (2 mg (10 mg/mL, 0.2 mL) PO bid 7 days, +7 Days), 4.74 log10 CFU; in assay [1] (2 mg (10 mg/mL, 0.2 mL) PO bid 7 days, +14 Days), 5.81 log10 CFU. The cell permeability in assay [2] (125 mg/mL) is < 4.3%; in assay [2] (250 mg/mL) it was ~60%. Further, the cell viability is 10^3 CFU/mL in assay [2] (125 mg/mL, by 240 min, from 10^7.5 CFU/mL at study start); ~10^4 CFU/mL in assay [2] (250 mg/mL, within 10 min); < 10^2 CFU/mL in assay [3]. Besides, the cell growth entry in assay [2] (pH 5.5 and 7, 125 mg/mL and 250 mg/mL, up to 24 h) was “slightly reduce cell growth”.
